Where “and” joins values, the source holds several entries; their conditions need not be identical. Identical values can stand only once. Like-named read-outs stand apart in the source and are kept apart here. Starred links: 1 amine or outer side, 2 acyl side, 3 side chain; linkers in the order of their positions; H or OH if unused. Positions of bridges follow the written chain, without caps; N, C: chain ends. Non-standard residues stand in square brackets, D forms with d. Residues, ends and D or L forms follow the SMILES beside them. *: point of attachment. hTyr(3S-OH,4S-OH,3'-OSO3H) = N[C@H](C(=O)O)[C@H](O)[C@@H](O)c1ccc(O)c(OS(=O)(=O)O)c1; Orn(4R-OH,5R-OH) = O=C([C@H](C[C@@H](O)[C@@H](O)N[*:3])N[*:1])[*:2]; Pro(3S-OH,4S-Me) = C[C@H]1CN[C@H](C(=O)O)[C@H]1O; X1 = CCCCCOc1ccc(-c2cc(-c3ccc(C(=O)*)cc3)no2)cc1; Gln(3R-OH) = NC(=O)C[C@@H](O)[C@H](N)C(=O)O; Hyp = O=C(O)[C@@H]1C[C@@H](O)CN1
What was measured:
[1] = system: Cryptococcus neoformans H99 ATCC 208821 type strain; assay: Antifungal MIC assay; assay type: cell-based; conditions: for MIC Cn: initial CO-ADD dose-response screening, ≥80% growth inhibition
Procedure, shortened: (§1)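 Read-out was the lowest compound concentration producing ≥80% growth inhibition, scored per CLSI M27. Yeast cells, precultured on YPD agar, were tested in YNB medium at a final 2.5 × 10^3 CFU/mL over 36 h at 35 °C.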

[2] = system: Candida tropicalis ATCC 750; assay: Antifungal MIC assay, extended panel; assay type: cell-based
[3] = system: Candida auris CBS10913 JCM 15448; assay: Antifungal MIC assay, extended panel; assay type: cell-based; conditions: for MIC: read-out: MIC* Candida auris CBS10913
Procedure: (§2) For the fungal assays, both fungi (yeast) strains were cultured for 3 days on Yeast Extract-Peptone Dextrose (YPD; Becton Dickinson 242720) agar at 30 °C. A yeast suspension of 1 × 10^6 to 5 × 10^6 CFU/mL (as determined by OD530) was prepared from five colonies from the agar plates, subsequently diluted with Yeast Nitrogen Base media (YNB; Becton Dickinson 233520), and added to each well of the compound containing plates (384-well plates, NBS; Corning CLS3640), giving a final cell density of 2.5 × 10^3 CFU/mL and a total volume of 50 μL. Plates were covered and incubated at 35 °C for 36 h without shaking. […] MIC […] Reference Method for Broth Dilution Antifungal Susceptibility Testing of Yeasts. […] Fluconazole (Sigma F8929) was used as internal control on each plate for all strains. All compounds were tested as two technical replicates in two to four independent biological assays, n = 4–8 final data.

[4] = system: Candida auris CBS12373 KCTC 17810; assay: Antifungal MIC assay, extended panel; assay type: cell-based; conditions: for MIC: read-out: MIC* Candida auris CBS12373
Procedure: as §2

[5] = system: HEK-293 human embryonic kidney cells ATCC CRL-1573
Procedure: The cells were incubated together with the compounds for 20 h at 37 °C in 5% CO2. […] Tamoxifen (Sigma T5648) was used as internal control on each plate.

[6] = system: Candida glabrata ATCC 90030 NCCLS 84; assay: Antifungal MIC assay, extended panel; assay type: cell-based
[7] = system: Pseudomonas aeruginosa ATCC 27853 QC control strain; assay: CO-ADD antibacterial MIC assay; assay type: cell-based; conditions: initial CO-ADD dose-response screening; ≥80% growth inhibition
Procedure: (§3) For the all the bacterial assays, each bacterial strain was cultured in cation-adjusted Mueller Hinton broth (CAMHB; Bacto Laboratories 212322) at 37 °C overnight. A sample of each culture was then diluted 40-fold in fresh CAMHB and incubated at 37 °C for 1.5–3 h. The resultant mid-log phase cultures were diluted with CAMHB (CFU/mL measured by OD600) and then added to each well of the compound-containing plates (384-well non-binding surface (NBS) plates; Corning CLS3640), giving a cell density of 5 × 10^5 CFU/mL and a total volume of 50 μL. Plates were covered and incubated at 37 °C for 18 h without shaking. Inhibition of bacterial growth was determined by measuring the absorbance at 600 nm (OD600) using media only as negative control and bacteria without inhibitors as positive control. MIC values were determined as the lowest concentration at which the growth was inhibited by ≥80% (equivalent to no visible growth by the eye). Colistin sulfate (Sigma C4461) and vancomycin HCl (Sigma 861987) were used as internal controls on each plate for Gram-negative and Gram-positive bacteria, respectively. All compounds were tested as two technical replicates in two independent biological assays, n = 4 final data.

[8] = system: Acinetobacter baumannii ATCC 19606 type strain; assay: CO-ADD antibacterial MIC assay; assay type: cell-based; conditions: initial CO-ADD dose-response screening; ≥80% growth inhibition
Procedure: as §3

[9] = system: methicillin-resistant Staphylococcus aureus ATCC 43300; assay: CO-ADD antibacterial MIC assay; assay type: cell-based; conditions: initial CO-ADD dose-response screening; ≥80% growth inhibition
Procedure: as §3

[10] = system: Escherichia coli ATCC 25922 FDA control strain; assay: CO-ADD antibacterial MIC assay; assay type: cell-based; conditions: initial CO-ADD dose-response screening; ≥80% growth inhibition
Procedure: as §3

human red blood cells = assay type: cell-based
Procedure: Human whole blood (Australian Red Cross) was washed three times with 3 vol of 0.9% NaCl and resuspended in a concentration of 0.5 × 10^8 cells/mL, determined by a manual cell count in a Neubauer hemocytometer. […] After incubation, the plates were centrifuged at 1000g for 10 min to pellet cells and debris; 25 μL of the supernatant was then transferred to reading plates (384-well, polystyrene plated (PS), Corning CLS3680), with hemolysis determined by measuring the supernatant absorbance at […] (OD405) using cells without inhibitors as negative control and cells with 1% Triton X-100 (Sigma T8787) as positive control. […] Melittin (Sigma M2272) was used as internal control on each plate.

[11] = system: Candida albicans ATCC 90028 NCCLS11; assay: Antifungal MIC assay; assay type: cell-based; conditions: for MIC Ca: initial CO-ADD dose-response screening, ≥80% growth inhibition
Procedure, shortened: as §1

[12] = system: Cryptococcus deuterogattii ATCC 32609 VGII; assay: Antifungal MIC assay, extended panel; assay type: cell-based
[13] = system: Candida glabrata ATCC 90030 NCCLS 84; assay: Antifungal MIC assay, extended panel; assay type: cell-based; conditions: extended panel, second batch; ≥80 or ≥50% inhibition
Procedure: (§4) For the fungal assays, both fungi (yeast) strains were cultured for 3 days on Yeast Extract-Peptone Dextrose (YPD; Becton Dickinson 242720) agar at 30 °C. A yeast suspension of 1 × 10^6 to 5 × 10^6 CFU/mL (as determined by OD530) was prepared from five colonies from the agar plates, subsequently diluted with Yeast Nitrogen Base media (YNB; Becton Dickinson 233520), and added to each well of the compound containing plates (384-well plates, NBS; Corning CLS3640), giving a final cell density of 2.5 × 10^3 CFU/mL and a total volume of 50 μL. Plates were covered and incubated at 35 °C for 36 h without shaking. […] MIC values were recorded as the lowest concentration at which the growth was inhibited by ≥80%, equivalent to ″optically clear-to-slightly hazy″ or MIC score of 0–1 as per CLSI guidelines M27 Reference Method for Broth Dilution Antifungal Susceptibility Testing of Yeasts. […] Fluconazole (Sigma F8929) was used as internal control on each plate for all strains. All compounds were tested as two technical replicates in two to four independent biological assays, n = 4–8 final data.

[14] = system: Candida tropicalis ATCC 750; assay: Antifungal MIC assay, extended panel; assay type: cell-based; conditions: extended panel, second batch; ≥80 or ≥50% inhibition
Procedure: as §4

[15] = system: Cryptococcus deuterogattii CBS7750 VGII; Serotype B; assay: Antifungal MIC assay, extended panel; assay type: cell-based; conditions: extended panel, second batch; ≥80 or ≥50% inhibition
Procedure: as §4

[16] = system: Cryptococcus deuterogattii ATCC 32609 VGII; assay: Antifungal MIC assay, extended panel; assay type: cell-based; conditions: extended panel, second batch; ≥80 or ≥50% inhibition
Procedure: as §4

[17] = system: Cryptococcus deuterogattii CBS7750 VGII; Serotype B; assay: Antifungal MIC assay, extended panel; assay type: cell-based
[18] = extended panel, second batch, ≥80 or ≥50% inhibition
[19] = extended panel, 50% inhibition, MIC score 2
[20] = initial CO-ADD screening, 1 h, 10% hemolysis
[21] = ranges obtained upon retesting, new batch

Cc1c(C)c(-c2ccc(-c3ccccc3)cc2)[c-](C)c1C.Cc1ccccc1NC1=[NH+][Ir]([Cl])[NH]C(NS(=O)(=O)c2ccc([N+](=O)[O-])cc2)=N1 [Ir2]
MIC Cryptococcus neoformans ATCC 208821 [1, 18]: 0.024 to 0.049 µM
MIC50 Cryptococcus neoformans ATCC 208821 [1, 19]: 0.024 to 0.098 µM
MIC Cn [1]: 2 µg/mL
MIC50 Candida tropicalis ATCC 750 [2, 19]: 0.098 to 0.195 µM
MIC Candida auris CBS10913 [3, 18]: 0.049 to 0.098 µM
MIC50 Candida auris CBS10913 [3, 19]: 0.049 to 0.098 µM
MIC [4, 18]: 0.024 µM
MIC50 Candida auris CBS12373 [4, 19]: 0.024 µM
HEK CC50 ([5]; initial CO-ADD screening, 20 h): >32 µg/mL
MIC50 Candida glabrata ATCC 90030 [6, 19]: 0.098 to 0.195 µM
MIC Pa [7]: >32 µg/mL
MIC Ab [8]: >32 µg/mL
MIC MRSA (Sa) [9]: 1 µg/mL
MIC Ec [10]: >32 µg/mL
RBC HC10 (human red blood cells; [20]): >32 µg/mL
RBC HC10 (human red blood cells; [21]): 2 to 76 µM
MIC Candida albicans ATCC 90028 [11, 18]: 0.049 to 0.098 µM
MIC50 Candida albicans ATCC 90028 [11, 19]: 0.049 to 0.098 µM
MIC Ca [11]: 2 µg/mL
MIC50 Cryptococcus deuterogattii ATCC 32609 [12, 19]: 0.098 to 0.195 µM
MIC [13]: 0.098 µM
MIC Candida tropicalis ATCC 750 [14]: 0.098 to 0.195 µM
MIC [15]: 0.024 µM
MIC Cryptococcus deuterogattii ATCC 32609 [16]: 0.098 to 0.195 µM
MIC50 Cryptococcus deuterogattii CBS7750 [17, 19]: 0.012 to 0.024 µM

CCCCCOc1ccc(-c2cc(-c3ccc(C(=O)N[C@H]4C[C@@H](O)[C@@H](O)NC(=O)[C@@H]5[C@@H](O)[C@@H](C)CN5C(=O)[C@H]([C@H](O)CC(N)=O)NC(=O)[C@H]([C@H](O)[C@@H](O)c5ccc(O)c(OS(=O)(=O)O)c5)NC(=O)[C@@H]5C[C@@H](O)CN5C(=O)[C@H]([C@@H](C)O)NC4=O)cc3)no2)cc1 [Micafungin, reference compound] (X1-[Orn(4R-OH,5R-OH)]T[Hyp][hTyr(3S-OH,4S-OH,3'-OSO3H)][Gln(3R-OH)][Pro(3S-OH,4S-Me)]; lactam 1-C)
MIC ([1]; Cryptococcus neoformans, ATCC208821, read-out: MIC* Cryptococcus neoformans ATCC 208821): 0.015 µg/mL to 0.063 µg/mL and 0.017 µM to 0.07 µM
MIC ([2]; Candida tropicalis, ATCC750, read-out: MIC* Candida tropicalis ATCC 750): 0.008 µg/mL to 0.063 µg/mL and 0.009 µM to 0.07 µM
MIC ([3]; Candidozyma auris): ≤ 0.001 µg/mL and ≤ 0.0014 µM
MIC ([4]; Candidozyma auris): 2 µg/mL and 2.23 µM
MIC ([6]; Nakaseomyces glabratus, ATCC90030, read-out: MIC* Candida glabrata ATCC 90030): 4 µg/mL to 32 µg/mL and 4.45 µM to 35.7 µM
MIC ([11]; Candida albicans, ATCC90028, read-out: MIC* Candida albicans ATCC 90028): ≤ 0.0005 µg/mL and ≤ 0.0007 µM
MIC ([12]; Cryptococcus deuterogattii, ATCC32609, read-out: MIC* Cryptococcus deuterogattii ATCC 32609): 0.016 µg/mL to 0.125 µg/mL and 0.017 µM to 0.139 µM
MIC ([17]; Cryptococcus deuterogattii, CBS7750, read-out: MIC* Cryptococcus deuterogattii CBS7750): 0.06 µg/mL to 0.125 µg/mL and 0.07 µM to 0.139 µM

C1=CCCC=CCC1.[Cl][Pd][Cl] [Pd1]
MIC ([1]; extended panel, second batch, ≥80 or ≥50% inhibition, read-out: MIC* Cryptococcus neoformans ATCC 208821): ≤0.78 µM
MIC Cn [1]: 0.63 µM
MIC [3, 18]: ≤0.78 µM
MIC [4, 18]: ≤0.78 µM
CC50 ([5]; read-out: HEK293 CC50, ranges obtained upon retesting, new batch): > 100 µM
CC50 ([5]; read-out: HEK CC50, initial CO-ADD screening, 20 h): > 20 µM
cytotoxicity: none up to stated concentration ([5]; retest): > 100 µM
MIC Pa [7]: >20 µM
MIC Ab [8]: >20 µM
MIC MRSA (Sa) [9]: >20 µM
MIC Ec [10]: >20 µM
RBC HC10 (human red blood cells; [20]): >20 µM
RBC HC10 (human red blood cells; [21]): 10 µM
MIC ([11]; extended panel, second batch, ≥80 or ≥50% inhibition, read-out: MIC* Candida albicans ATCC 90028): 3.12 µM
MIC Ca [11]: 1.25 µM
MIC [13]: 3.12 µM
MIC [14]: 6.25 µM
MIC [15]: ≤0.78 µM
MIC Cryptococcus deuterogattii ATCC 32609 [16]: 1.56 to 3.12 µM

Reference: publication PMC9597602, “Metal Complexes as Antifungals? From a Crowd-Sourced Compound Library to the First In Vivo Experiments” (JACS Au, 2022)
